# Like-named read-outs stand apart in the source and are kept apart here.
# Key:
# [1] = system: rice stem borers (Chilo suppressalis Walker); assay: Mortality test with rice stem borers by topical application method; format: in vivo; conditions: 24 h; for mortality at 0.001 mg: read-out: Pesticidal effect, rice stem borer
# Description: Mortality test with rice stem borers (Chilo suppressalis Walker) by topical application method
# Using a microsyringe, 0.5 μl of the above solution was applied to the thoracic abdominal region of each final-instar larva of rice stem borer (Chilo suppressalis Walker). […] The test larvae were used in groups of 20 individuals each.
# [2] = system: brown planthoppers (Nilaparvata lugens); assay: Utility Example-7: 0.5% dust on rice seedlings, brown planthoppers; format: in vivo; conditions: 1 kg per 10 ares, 24 hours
# Source text: (§1) A 0.5% dust preparation of each of the cis- and trans-isomers and a 50:50 mixture of the cis- and trans-isomers of Compound (1) and of Compound (2) as prepared by the procedure described in Formulation Example-4 was applied to rice seedlings, on which 30 adult brown planthoppers (Nilaparvata lugens) were released, by means of a bell-jar duster at the rate of 1 kg per 10 ares. […] In all cases, the mortality was not less than 90%.
# [3] = system: green rice leafhoppers (Nephotettix cincticeps Uhler); assay: Utility Example-2: spray on rice plants, green rice leafhoppers; format: in vivo; conditions: 7 ml/pot, 24 hours
# Description: A 30% emulsifiable concentrate of each of the cis- and trans-isomers and a 50:50 mixture of the cis- and trans-isomers of Compound (1) and Compound (2) as prepared by the procedure described in Formulation Example-1 was diluted with water to a concentration of 80 ppm as active compound. Rice plants 4 weeks after sowing in pots (each pot 6 cm in diameter, 7 seedlings) were sprayed with the above solution at the rate of 7 ml/pot and, after drying in the air, each pot was covered with a wire-mesh cage. Then, 20 female adult green rice leafhoppers (Nephotettix cincticeps Uhler) were released into the cage. The caged pots were kept in a constant-temperature chamber at 25° C. […] In all groups, the mortality values were not less than 90%.
# [4] = system: houseflies (Musca domestica); assay: Mortality test with houseflies by topical application method; conditions: 24 h; for mortality at 0.001 mg: read-out: Pesticidal effect, housefly
# Description: Mortality test with houseflies (Musca domestica) by topical application method
# Each of the compounds according to this invention and the control compounds (Table 2) was accurately weighted and a 0.1% solution of each sample in acetone was prepared. Female adult houseflies (Musca domestica) resistant to organophosphorus pesticides, were anesthetized with ether and 0.5 μl or 1.0 μl of the above solution was micropipetted onto the prothoracic dorsal region of each insect. The insects were then put in a high-walled dish together with feed and the dish was covered with a wire-mesh cover and kept at a temperature of 25° C. The test insects were used in groups of 30 individuals each. After 24 hours the insects were examined for deaths and the percent mortality was calculated.
# [5] = system: tobacco cutworm (Prodenia litura); assay: Utility Example-5: spray on soy bean leaves, tobacco cutworm larvae; format: in vivo; conditions: 48 h; 13 ppm; 2 days
# Description: An acetone solution of one of the test compounds as mentioned in Table 13 and Tween-20 (the same surfactant as mentioned hereinbefore) was prepared. This acetone solution was diluted with water to prepare a solution containing the test compound in a predetermined concentration. Leaves of soy bean in pots were sprayed with the above diluted solution at the rate of 20 ml/pot and, after one day, ten 3-instar larvae of tobacco cutworm (Prodenia litura) were released on the leaves. The pots were kept in a constant-temperature chamber at 25° C.
# [6] = system: green rice leafhoppers (Nephotettix cincticeps Uhler); assay: Mortality test with green rice leafhoppers by topical application method; conditions: Nephotettix cincticeps, in Oryza sativa, 24 h; for mortality at 10 ng: read-out: Pesticidal effect, green rice leafhopper
# Description: Mortality test with green rice leafhoppers (Nephotettix cincticeps Uhler) by topical application method
# Then, the insects were kept at 25° C. with access to rice plant seedlings. The insects were used in groups of 15 individuals each.
# [7] = system: tobacco cutworms (Prodenia litura Fabricius); assay: Mortality test with tobacco cutworms by topical application method; format: in vivo; conditions: 24 h
# Description: Mortality test with tobacco cutworms (Prodenia litura Fabricius) by topical application method
# Using a microsyringe, 0.5 μl of the above solution was dripped onto the thoracic adbominal region of each of 3-instar tobacco cutworm (Prodenia litura Fabricius) larvae. […] The test larvae were used in groups of 20 individuals each.
# [8] = system: green rice leafhoppers (Nephotettix cincticeps); assay: Utility Example-6: 0.5% dust on rice seedlings, green rice leafhoppers; format: in vivo; conditions: 1 kg per 10 ares, 24 hours, resistant to organophosphorus and carbamate pesticides
# Source text: as §1, with “seedlings” for “seedlings, on which 30 adult brown planthoppers (Nilaparvata lugens) were released,”, “ares. Then, 30 green rice leafhoppers (Nephotettix cincticeps) resistant to organophosphorus and carbamate pesticides were released.” for “ares.”
# [9] = system: green rice leafhoppers (Nephotettix cincticeps Uhler); assay: Utility Example-4: 0.2% dust on rice seedlings, green rice leafhoppers; format: in vivo; conditions: 5 kg per 10 ares, 24 hours, resistant to organophosphorus and carbamate pesticides
# Source text: A 0.2% dust preparation of each of the cis- and trans-isomers and a 50:50 mixture of the cis- and trans-isomers of Compound (1) and of Compound (2) as prepared by the procedure described in Formulation Example-3 was applied to rice seedlings by means of a bell-jar duster at the rate of 5 kg per 10 ares. […] In all cases, the mortality was not less than 90%.
# [10] = system: killifish (Orizias latipes); assay: Fish toxicity test with killifish; format: in vivo; conditions: Table 1; 48 hrs.
# How it was run: (§2)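 Test compound dispensed from acetone solution into water at set concentrations; ten aerated-water killifish (~0.25 g, ~2.5 cm) held at 25±1° C. Deaths scored after 48 hours; TLm (median tolerance limit, ppm) determined.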
# [11] = Fish toxicity test with killifish; format: in vivo, Orizias latipes; conditions: water, killifish, 25±1° C., read-out: TLm (48 hrs.)
# How it was run: as §2
# [12] = system: two-spotted spider mites (Tetranychus urticae Koch); assay: Mortality test with two-spotted spider mites by spray application method; format: in vivo; conditions: 48 h, 200 ppm spray, two days, read-out: Percent decrease of population (%)
# Description: Mortality test with two-spotted spider mites (Tetranychus urticae Koch) by spray application method
# To a 5% aqueous solution of acetone was added dropwise a small amount of Tween-20 (polyethylene sorbitan monolaurate) as a surfactant. […] From 30 to 50 adult two-spotted spider mites (Tetranychus urticae Koch) were released on the leaves of kidney-bean plants in the dicotyledonous stage in a pot 9 cm in diameter, followed by a spray application of the above solution. The pot was kept in a constant-temperature chamber at 26° C. and two days later the mites were examined for deaths. The percent decrease of population was then calculated.
# [13] = system: small brown planthoppers (Laodelphax striatellus Fallen); assay: Utility Example-3: spray on rice plants, small brown planthoppers; format: in vivo; conditions: 7 ml/pot, 24 hours
# Description: A 30% emulsifiable concentrate of each of the cis- and trans-isomers and a 50:50 mixture of the cis- and trans-isomers of Compound (1) and of Compound (2) as prepared by the procedure described in Formulation Example-1 was diluted with water to a concentration of 80 ppm as active compound. Rice plants 4 weeks after sowing in pots (each pot 6 cm in diameter, 7 seedlings) were sprayed with the above diluted solution at the rate of 7 ml/pot and, after drying in the air, each pot was covered with a wire-mesh cage. Then, 30 adult small brown planthoppers (Laodelphax striatellus Fallen) were released into the cage. The pots were kept in a constant-temperature chamber at 25° C. […] In all groups, the mortality was not less than 90%.
# [14] = system: guppies (Lebistes reticulatus); assay: Fish toxicity test with guppies; format: in vivo; conditions: Table 1; 48 hrs.
# Description: (§3) Fish toxicity test with guppies (Lebistes reticulatus)
# (§4) To 5 liters of water were added 250 mg of Sorpol SM-200 (trademark, Toho Chemical Co., Ltd.) as a surfactant and 2.5 ml of an acetone solution containing one of the test compounds in a predetermined concentration. The mixture was stirred thoroughly to prepare a test water. Ten female guppies (Lebistes reticulatus) of from 3 to 4 months of age were released into the test water which was maintained at 20° C. and the TLm (median tolerance limit, ppm) was determined.
# [15] = Fish toxicity test with guppies; format: in vivo, Lebistes reticulatus; conditions: guppy, water, guppies, 20° C., read-out: TLm (48 hrs.)
# Description: as §3, §4
# rat = assay: Acute toxicity test in rat by the oral route; format: in vivo; conditions: Table 1, rat, 10080 min
# Source text: (§5) Acute toxicity test in rat by the oral route
# [16] = Acute toxicity test in rat by the oral route; format: in vivo; conditions: in vivo, male rat, in olive oil, after 7 days
# Source text: as §5
# [17] = system: brown planthoppers (Nilaparvata lugens Stal); assay: Utility Example-1: LC50 on adult brown planthoppers on dipped rice plants; format: in vivo; conditions: Nilaparvata lugens, 24 h, 25° C., read-out: Pesticidal activity LC50
# How it was run: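 Rice plants 4 weeks from sowing were dipped in water-diluted 1% emulsifiable concentrate at set concentrations and air-dried. Thirty adult N. lugens were caged on each pot, held at 25 °C.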
# carp and water flea = assay: Fish toxicity ranking according to Japanese regulations; set-up: species or system Cyprinus carpio L; Daphnia pulex; conditions: from TLm for carp and water flea
# How it was run: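 Ranking per Japanese agrochemical regulations from median tolerance limits: A = carp TLm (48 hrs.) >10 ppm and water flea TLm (3 hrs.) >0.5 ppm; B = carp 10-0.5 ppm, or carp >10 ppm with water flea <0.5 ppm; C = carp TLm (48 hrs.) <0.5 ppm.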
# [18] = Fish toxicity test with carp; format: in vivo, Cyprinus carpio L; conditions: carp, water, 48 hrs., 21±1° C.; read-out: TLm, Carp (48 hrs.)
# How it was run: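 Compound in acetone with Tween-20 dispersed in 50 L aerated water at a set concentration; five carp (about 6 g, 6 cm) exposed at 21±1° C. Deaths checked after 48 h, and TLm (median tolerance limit, ppm) determined.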
# crop plants = assay: Phytotoxicity test; format: in vivo; conditions: 2,000 ppm solution on leaves, after 10 days
# Source text: A 2,000 ppm solution of each of the cis- and trans-isomers and a 50:50 mixture of cis- and trans-isomers of Compound (1) and of Compound (2), and a 50:50 mixture of the cis- and trans-isomers of Compound (B) and Compound (E) was applied to the leaves of the following crop plants.
# After 10 days, the crop plants were examined for their phytotoxicities.
# [19] = Fish toxicity safety factor (TLm divided by maximum concentration in cover water); set-up: species or system carp; conditions: in vivo, TLm / maximum concentration in cover water at LC50 application (100 l per 10 ares, 5 cm depth)
# How it was run: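 Calculated index: carp TLm (ppm) divided by the maximum compound concentration expected in paddy cover water. That concentration assumes 100 l of solution at the pest LC50 applied per 10 ares onto 5 cm deep cover water, all of it entering the water.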
# [20] = read-out: Pesticidal effect, tobacco cutworm
compound,measurement,setting,value
"CC1(C)C(C=C(Cl)Cl)C1C(=O)OCc1cccc(Oc2ccc(Cl)cc2)c1 (stereo not drawn) [Compound (1) cis-/trans- = 50:50, 3-(4-chlorophenoxy)benzyl 2,2-dimethyl-3-(2,2-dichlorovinyl)cyclopropanecarboxylate]",mortality at 1 µg/larva,[1],100%
same,mortality at 10 µg/larva,[1],100%
same,mortality at 0.001 mg,[1],100%
same,mortality,[2],not less than 90%
same,mortality at 80 ppm,[3],≥ 90%
same,mortality at 0.5 µg/female,[4],100%
same,mortality at 1 µg/female,[4],100%
same,mortality at 0.001 mg,[4],100%
same,mortality at 13 ppm,[5],100%
same,mortality at 0.01 µg/female,[6],100%
same,mortality at 0.1 µg/female,[6],100%
same,mortality at 1 µg/female,[6],100%
same,LD50,"[6]; read-out: LD50 (median lethal dose), topical, green rice leafhoppers",1.32 mg/kg
same,mortality at 10 ng,[6],100%
same,mortality at 0.0001 mg,[7],100%
same,mortality at 0.0001 mg,[7]; [20],100%
same,mortality,[8],not less than 90%
same,mortality,[9],not less than 90%
same,"Toxicity to fish TLm, killifish",[10],> 10 ppm
same,LC50 at 48 h,[11],> 10 mg/L
same,mortality at 200 ppm,[12],100%
same,mortality at 80 ppm,[13],≥ 90%
same,"Toxicity to fish TLm, guppy",[14],> 5 ppm
same,LC50 at 48 h,[15],> 5 mg/L
same,Acute oral toxicity to rat LD50,rat,> 3000 mg/kg
same,LD50 at 168 h,[16],> 3000 mg/kg
"CC(C)C(C(=O)OC(C#N)c1cccc(Oc2ccccc2)c1)c1ccc(Cl)cc1 (stereo not drawn) [Compound (E), Fenvalerate]",mortality at 1 µg/larva,[1],100%
same,mortality at 10 µg/larva,[1],100%
same,mortality at 0.001 mg,[1],100%
same,mortality at 0.5 µg/female,[4],100%
same,mortality at 1 µg/female,[4],100%
same,mortality at 0.001 mg,[4],100%
same,mortality at 0.01 µg/female,[6],100%
same,mortality at 0.1 µg/female,[6],100%
same,mortality at 1 µg/female,[6],100%
same,mortality at 10 ng,[6],100%
same,LC50,[17],1550 mg/L
same,mortality at 0.0001 mg,[7]; [20],100%
same,Ranking,carp and water flea,"C (TLm (48 hrs.) value <0.5 ppm for carp, wherein toxicity to fishes is so strongly observed by usual application that both the application method and application area are strictly restricted.)"
same,LC50 at 48 h,[18],0.0032 mg/L
same,phytotoxicity,crop plants,caused chlorosis to each one of the crop plants and did large damage to the same
same,selectivity ratio,[19],0.001
same,"Toxicity to fish TLm, guppy",[14],< 0.5 ppm
same,LC50 at 48 h,[15],< 0.5 mg/L
same,LD50 at 168 h,[16],440 mg/kg

# — patent US4389412A, “Substituted cyclopropanecarboxylic acid esters and pesticidal compositions containing the same as active ingredient” (priority 1979, dated 1983)
